Assays:
[1] = target: T1, rhPRDX2 (PRDX2) (Homo sapiens, UniProt P32119); assay: CD thermal denaturation; assay type: binding; conditions: 10 μM protein, 1 mM ART, 20 mM Tris-HCl
T1 construct: pET28a His-tagged, expressed in E. coli Rosetta, His-purified; decamer in docking model; endogenous protein of U2932 lysate in the Biotin-ART pull-down
T1 sequence (P32119 2-198): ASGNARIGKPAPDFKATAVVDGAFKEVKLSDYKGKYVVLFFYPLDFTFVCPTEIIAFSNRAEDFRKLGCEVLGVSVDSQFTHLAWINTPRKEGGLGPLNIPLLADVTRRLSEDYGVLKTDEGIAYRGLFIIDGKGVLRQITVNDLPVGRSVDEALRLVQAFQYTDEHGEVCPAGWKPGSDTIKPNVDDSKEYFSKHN

[2] = target: T2, rhPRDX1 (PRDX1) (Homo sapiens, UniProt Q06830); assay: intrinsic fluorescence titration, Hill plot; assay type: binding
T2 construct: pET28a His-tagged, expressed in E. coli BL21, His-purified; homodimer in docking model; endogenous protein of U2932 lysate in the Biotin-ART pull-down
T2 sequence (Q06830 2-199): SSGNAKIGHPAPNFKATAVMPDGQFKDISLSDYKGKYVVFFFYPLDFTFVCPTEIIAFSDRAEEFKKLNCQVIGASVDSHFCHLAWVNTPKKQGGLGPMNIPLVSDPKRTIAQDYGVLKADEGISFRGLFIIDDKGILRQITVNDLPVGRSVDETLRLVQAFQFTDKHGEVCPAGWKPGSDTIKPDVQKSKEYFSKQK

[3] = target: T2, rhPRDX1 (PRDX1); assay: H2O2 reduction assay, residual H2O2 kit; assay type: biochemical; conditions: 20 μM protein, 30 min preincubation, 100 μM H2O2, RT
[4] = target: T1, rhPRDX2 (PRDX2); assay: intrinsic fluorescence titration, Hill plot; assay type: binding

- Tm (without to with ART) [1]: 57 to 61 °C
- Kd [2]: 6.1 µM
- Kd [4]: 5.24 µM
SMILES: C[C@H]1[C@H](OC(=O)CCC(=O)O)O[C@@H]2O[C@@]3(C)CC[C@H]4[C@H](C)CC[C@@H]1[C@@]24OO3 [Artesunate]
- H2O2 reduction assay, residual H2O2 kit [3]: ART suppressed the peroxidase activity of rhPRDX1 and rhPRDX2 in a dose-dependent manner

From article PMC12254379, “Artesunate induces ferroptosis in diffuse large B-cell lymphoma cells by targeting PRDX1 and PRDX2” (Cell Death & Disease, 2025)
